Assay in all cases: isothermal titration calorimetry
Common to all, as to type: binding
Background: Isothermal titration calorimetry measures the heat released or taken up as one component is titrated into another.

For experiment [1], the target named is T1, AaLpxC (Aquifex aeolicus, UniProt O67648, I189A).
T1 construct: gene lpxC; codon-optimised gene in pET-21a (NdeI/XhoI), E. coli BL21(DE3); approx. 32 kDa; Zn2+ enzyme; last five residues LTRLE disordered in crystal
T1 sequence (O67648 1-271 I189A): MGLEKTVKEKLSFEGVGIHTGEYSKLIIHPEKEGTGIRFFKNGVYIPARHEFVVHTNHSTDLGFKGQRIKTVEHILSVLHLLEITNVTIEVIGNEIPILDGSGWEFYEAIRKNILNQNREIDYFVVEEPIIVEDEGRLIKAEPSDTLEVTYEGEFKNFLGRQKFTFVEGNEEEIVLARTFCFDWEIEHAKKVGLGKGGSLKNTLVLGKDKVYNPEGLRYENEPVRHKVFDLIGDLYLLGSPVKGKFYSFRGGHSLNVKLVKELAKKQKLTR
The source says:
(§1) isothermal titration calorimetry on AaLpxC

Experiment [2] has as its target T2, AaLpxC (Aquifex aeolicus, UniProt O67648, H19A).
T2 construct: gene lpxC; codon-optimised gene in pET-21a (NdeI/XhoI), E. coli BL21(DE3); approx. 32 kDa; Zn2+ enzyme; last five residues LTRLE disordered in crystal
T2 sequence (O67648 1-271 H19A): T1 sequence (O67648 1-271 I189A) with H19A, A189I
Description: as §1

The target in experiment [3] is T3, AaLpxC (Aquifex aeolicus, UniProt O67648, K227A).
T3 construct: gene lpxC; codon-optimised gene in pET-21a (NdeI/XhoI), E. coli BL21(DE3); approx. 32 kDa; Zn2+ enzyme; last five residues LTRLE disordered in crystal
T3 sequence (O67648 1-271 K227A): T1 sequence (O67648 1-271 I189A) with A189I, K227A
Description: as §1

Experiment [4] concerns the target T4, AaLpxC (Aquifex aeolicus, UniProt O67648, I186A).
T4 construct: gene lpxC; codon-optimised gene in pET-21a (NdeI/XhoI), E. coli BL21(DE3); approx. 32 kDa; Zn2+ enzyme; last five residues LTRLE disordered in crystal
T4 sequence (O67648 1-271 I186A): T1 sequence (O67648 1-271 I189A) with I186A, A189I
Description: as §1

The target in experiment [5] is T5, AaLpxC (Aquifex aeolicus, UniProt O67648, E73A).
T5 construct: gene lpxC; codon-optimised gene in pET-21a (NdeI/XhoI), E. coli BL21(DE3); approx. 32 kDa; Zn2+ enzyme; last five residues LTRLE disordered in crystal
T5 sequence (O67648 1-271 E73A): T1 sequence (O67648 1-271 I189A) with E73A, A189I
Description: as §1

Experiment [6] has as its target T6, AaLpxC (Aquifex aeolicus, UniProt O67648, E185A).
T6 construct: gene lpxC; codon-optimised gene in pET-21a (NdeI/XhoI), E. coli BL21(DE3); approx. 32 kDa; Zn2+ enzyme; last five residues LTRLE disordered in crystal
T6 sequence (O67648 1-271 E185A): T1 sequence (O67648 1-271 I189A) with E185A, A189I
Description: as §1

Experiment [7] deals with T7, AaLpxC (Aquifex aeolicus, UniProt O67648, F180A).
T7 construct: gene lpxC; codon-optimised gene in pET-21a (NdeI/XhoI), E. coli BL21(DE3); approx. 32 kDa; Zn2+ enzyme; last five residues LTRLE disordered in crystal
T7 sequence (O67648 1-271 F180A): T1 sequence (O67648 1-271 I189A) with F180A, A189I
Description: as §1

In experiment [8] the target is T8, AaLpxC (Aquifex aeolicus, UniProt O67648, S59A).
T8 construct: gene lpxC; codon-optimised gene in pET-21a (NdeI/XhoI), E. coli BL21(DE3); approx. 32 kDa; Zn2+ enzyme; last five residues LTRLE disordered in crystal
T8 sequence (O67648 1-271 S59A): T1 sequence (O67648 1-271 I189A) with S59A, A189I
Description: as §1

The target in experiment [9] is T9, AaLpxC (Aquifex aeolicus, UniProt O67648, I18A).
T9 construct: gene lpxC; codon-optimised gene in pET-21a (NdeI/XhoI), E. coli BL21(DE3); approx. 32 kDa; Zn2+ enzyme; last five residues LTRLE disordered in crystal
T9 sequence (O67648 1-271 I18A): T1 sequence (O67648 1-271 I189A) with I18A, A189I
Description: as §1

Experiment [10] deals with T10, AaLpxC (Aquifex aeolicus, UniProt O67648, T203A).
T10 construct: gene lpxC; codon-optimised gene in pET-21a (NdeI/XhoI), E. coli BL21(DE3); approx. 32 kDa; Zn2+ enzyme; last five residues LTRLE disordered in crystal
T10 sequence (O67648 1-271 T203A): T1 sequence (O67648 1-271 I189A) with A189I, T203A
Description: as §1

The target in experiment [11] is T11, AaLpxC (Aquifex aeolicus, UniProt O67648).
T11 construct: gene lpxC; codon-optimised gene in pET-21a (NdeI/XhoI), E. coli BL21(DE3); approx. 32 kDa; Zn2+ enzyme; last five residues LTRLE disordered in crystal
T11 sequence (O67648 1-271): T1 sequence (O67648 1-271 I189A) with A189I
Description: as §1

Kd data for one compound are collected here from article PMC7962117, “The Complex Structure of Protein AaLpxC from Aquifex aeolicus with ACHN-975 Molecule Suggests an Inhibitory Mechanism at Atomic-Level against Gram-Negative Bacteria” (Molecules, 2021).

Substitutions are numbered along the chain they refer to.

Consider `CC(C)(N)[C@H](NC(=O)c1ccc(C#CC#C[C@@H]2C[C@H]2CO)cc1)C(=O)NO` [ACHN-975], for which the Kd (in general, the concentration at which binding is half-saturated) at AaLpxC [1] amounted to 100 ± 90 nM; on AaLpxC [2] it was 400 ± 200 nM; at AaLpxC [3], 100 ± 80 nM; at AaLpxC [4], 200 ± 90 nM; on AaLpxC [5], 70 ± 50 nM; on AaLpxC [6] it was 60 ± 30 nM. Also, the Kd was 90 ± 70 nM on AaLpxC [7]; 400 ± 100 nM on AaLpxC [8]; 400 ± 300 nM on AaLpxC [9]; 2000 ± 1400 nM on AaLpxC [10]; 400 ± 100 nM on AaLpxC [11].
